Laboratory results as given in PMC8670521, “Identification and characterization of an atypical Gαs-biased β2AR agonist that fails to evoke airway smooth muscle cell tachyphylaxis” (Proceedings of the National Academy of Sciences of the …, 2021).
Where two headings read alike, the source gives them in different places.

Legend:
[1] = target: T1, β2AR tagged at its carboxyl terminus (PathHunter ECA) (Homo sapiens, UniProt P07550); test: β-arrestin2 recruitment, PathHunter enzyme complementation; assay type: cell-based; settings: […] min, […] °C, CHO cells
T1 construct: gene ADRB2; C-terminal complementary β-galactosidase fragment tag; DiscoverX PathHunter CHO cells co-expressing β-arrestin2 fused to fragment-deficient β-galactosidase (read-out)
T1 sequence (P07550 whole entry, the tested form may be a part): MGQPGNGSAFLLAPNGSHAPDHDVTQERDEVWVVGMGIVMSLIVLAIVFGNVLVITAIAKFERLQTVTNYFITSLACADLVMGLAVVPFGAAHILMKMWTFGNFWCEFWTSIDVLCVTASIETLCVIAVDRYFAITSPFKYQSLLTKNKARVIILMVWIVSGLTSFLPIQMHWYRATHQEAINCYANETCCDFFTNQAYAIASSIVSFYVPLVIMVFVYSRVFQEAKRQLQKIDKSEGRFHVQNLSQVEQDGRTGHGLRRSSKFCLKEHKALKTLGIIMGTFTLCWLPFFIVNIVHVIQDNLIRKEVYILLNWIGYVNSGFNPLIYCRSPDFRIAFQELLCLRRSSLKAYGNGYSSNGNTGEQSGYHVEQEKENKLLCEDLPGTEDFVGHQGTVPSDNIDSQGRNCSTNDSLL

[2] = target: T2, human β2AR (β2-adrenergic receptor) (Homo sapiens, UniProt P07550); test: cAMP accumulation, competitive immunoassay; assay type: cell-based
T2 construct: gene ADRB2; full-length receptor cDNA stably expressed in CHW-1102 (CHW-β2) cells, ~2,000 fmol/mg
T2 sequence (P07550 whole entry): as the sequence (P07550 whole entry, the tested form may be a part) above
Description: cAMP accumulation, competitive immunoassay on human β2AR (β2-adrenergic receptor)

[3] = agonist, […] min, […] °C, IBMX […], whole CHW-β[…] cells

| EC50 [2] | EC50 [2, 3] | Structure (SMILES) | β-arrestin2 recruitment, PathHunter enzyme complementation [1] |
| --- | --- | --- | --- |
| 4.23 ± 1 µM |  | COc1ccc(CC2=N[C@@H](CCCCN3C[C@H](Cc4ccc(O)cc4)N(CCCCC4CCCCC4)C3=O)CN2)cc1 [C1-S] | lack of a response to C1-S in the β-arrestin ECA |
|  | 6.67 ± 2.01 µM | COc1ccc(CC2=N[C@@H](CCCCN3C[C@H](Cc4ccc(O)cc4)N(CCCCC4CCCCC4)C3=O)CN2)cc1OC [C2-S] |  |
|  | 4.31 ± 1.69 µM | CCOc1ccc(CC2=N[C@@H](CCCCN3C[C@H](Cc4ccc(O)cc4)N(CCCCC4CCCCC4)C3=O)CN2)cc1 [C3-S] |  |

| Structure (SMILES) | EC50 [2] | EC50 [2, 3] | β-arrestin2 recruitment, PathHunter enzyme complementation [1] |
| --- | --- | --- | --- |
| CC(C)CC1=N[C@@H](CCCCN2C[C@H](Cc3ccc(O)cc3)N(CCCCC3CCCCC3)C2=O)CN1 [C4-S] |  | 3.52 ± 0.52 µM |  |
